Experimental findings from patent publication US10660877B2 (BRISTOL-MYERS SQUIBB COMPANY, priority 2016, dated 2020) are described below.

Structures are written as SMILES. pIC50: −log10 of the molar value. Like-named read-outs stand apart in the source and are kept apart here.

The target in one test is human TLR8 (Homo sapiens (Human), UniProt Q9NR97). In words: TLR8 inhibition reporter assay (HEK-Blue cells, SEAP reporter, R848 stimulation). (Reporter assays use an easily measured gene product as a stand-in for the process of interest.);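 also: compounds tested from 0.05 nM to 50 µM, 22 h at 37 °C, SEAP measured with HEK-Blue Detection, inhibition relative to agonist plus DMSO versus a known inhibitor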
human TLR8, sequence (Q9NR97 27-1041): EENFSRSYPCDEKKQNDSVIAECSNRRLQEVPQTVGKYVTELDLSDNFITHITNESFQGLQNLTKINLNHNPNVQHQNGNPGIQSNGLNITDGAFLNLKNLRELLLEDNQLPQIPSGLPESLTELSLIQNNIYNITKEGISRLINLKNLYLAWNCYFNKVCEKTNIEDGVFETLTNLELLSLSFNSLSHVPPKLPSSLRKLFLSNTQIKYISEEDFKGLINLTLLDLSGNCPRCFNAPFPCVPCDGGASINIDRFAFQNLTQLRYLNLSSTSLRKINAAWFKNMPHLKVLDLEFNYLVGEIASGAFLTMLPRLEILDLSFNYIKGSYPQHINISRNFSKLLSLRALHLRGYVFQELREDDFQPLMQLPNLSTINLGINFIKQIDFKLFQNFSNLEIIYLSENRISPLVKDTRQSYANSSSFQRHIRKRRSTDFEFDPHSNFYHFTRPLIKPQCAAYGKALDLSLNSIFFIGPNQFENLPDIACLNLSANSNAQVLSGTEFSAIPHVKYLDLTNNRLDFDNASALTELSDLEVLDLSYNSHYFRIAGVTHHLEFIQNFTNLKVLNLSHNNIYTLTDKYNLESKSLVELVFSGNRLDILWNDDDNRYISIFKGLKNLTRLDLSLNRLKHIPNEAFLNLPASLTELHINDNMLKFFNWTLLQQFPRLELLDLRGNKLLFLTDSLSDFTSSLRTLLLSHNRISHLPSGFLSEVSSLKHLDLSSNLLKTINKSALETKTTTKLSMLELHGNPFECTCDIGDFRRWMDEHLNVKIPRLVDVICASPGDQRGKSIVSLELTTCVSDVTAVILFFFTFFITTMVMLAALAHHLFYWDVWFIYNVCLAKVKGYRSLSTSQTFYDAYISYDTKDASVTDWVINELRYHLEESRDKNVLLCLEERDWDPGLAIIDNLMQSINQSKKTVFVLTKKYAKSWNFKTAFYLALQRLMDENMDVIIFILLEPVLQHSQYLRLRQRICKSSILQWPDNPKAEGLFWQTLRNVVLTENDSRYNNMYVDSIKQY
The target of a further test is human TLR7 (Homo sapiens (Human), UniProt Q9NYK1). In words: TLR7 inhibition reporter assay (HEK-Blue cells, SEAP reporter, gardiquimod stimulation). In kind it is cell-based.
human TLR7, sequence (Q9NYK1 27-1049): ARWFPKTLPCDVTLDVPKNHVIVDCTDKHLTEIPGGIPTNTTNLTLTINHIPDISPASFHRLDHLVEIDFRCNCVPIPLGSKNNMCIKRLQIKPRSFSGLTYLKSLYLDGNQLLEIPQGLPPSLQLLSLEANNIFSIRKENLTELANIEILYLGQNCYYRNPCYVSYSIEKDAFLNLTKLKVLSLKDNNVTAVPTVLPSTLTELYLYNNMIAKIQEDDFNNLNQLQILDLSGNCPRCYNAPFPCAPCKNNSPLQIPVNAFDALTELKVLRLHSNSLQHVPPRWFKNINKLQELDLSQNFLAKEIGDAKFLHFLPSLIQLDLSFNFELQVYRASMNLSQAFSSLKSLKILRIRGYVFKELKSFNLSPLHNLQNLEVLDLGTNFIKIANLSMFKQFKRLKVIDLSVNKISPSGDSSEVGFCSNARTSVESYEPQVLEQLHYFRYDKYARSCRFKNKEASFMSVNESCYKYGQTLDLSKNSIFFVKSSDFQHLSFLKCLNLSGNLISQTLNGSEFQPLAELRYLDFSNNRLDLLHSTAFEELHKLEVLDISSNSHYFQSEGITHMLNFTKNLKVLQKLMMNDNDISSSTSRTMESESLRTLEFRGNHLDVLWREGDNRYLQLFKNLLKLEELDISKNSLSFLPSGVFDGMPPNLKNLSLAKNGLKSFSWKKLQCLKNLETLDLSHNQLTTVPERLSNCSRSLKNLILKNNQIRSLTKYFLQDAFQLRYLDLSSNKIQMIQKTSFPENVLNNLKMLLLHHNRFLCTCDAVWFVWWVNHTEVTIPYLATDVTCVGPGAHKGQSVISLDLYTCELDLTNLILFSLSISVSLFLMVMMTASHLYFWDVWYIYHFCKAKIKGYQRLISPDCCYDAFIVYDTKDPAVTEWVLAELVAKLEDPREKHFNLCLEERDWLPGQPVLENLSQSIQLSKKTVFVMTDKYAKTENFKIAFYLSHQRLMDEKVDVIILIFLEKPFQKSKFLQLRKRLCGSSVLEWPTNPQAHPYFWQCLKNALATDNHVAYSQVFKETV
A further test has as its target human TLR9 (Homo sapiens (Human), UniProt Q9NR96). In words: TLR9 inhibition reporter assay (HEK-Blue cells, SEAP reporter, ODN2006 stimulation).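 Also: compounds tested over 0.05 nM to 50 µM, 22 h incubation, inhibition taken as SEAP signal drop from agonist plus DMSO wells toward a known inhibitor control.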
Setting [1] is: read-out: TLR8 IC50, HEK-Blue cells overexpressing human TLR8, R848 15.9 μM.
Setting [2] is: HEK-Blue cells overexpressing human TLR7, gardiquimod 7.5 μM.
[3] abbreviates: read-out: TLR9 IC50, HEK-Blue cells overexpressing human TLR9, ODN2006 5 nM.
Where [4] appears, read: read-out: TLR8 IC50, HEK-Blue cells, R848 15.9 μM.
Setting [5] is: HEK-Blue cells, gardiquimod 7.5 μM.
The mark [6] stands for this setting: read-out: TLR9 IC50, HEK-Blue cells, ODN2006 5 nM.

human TLR9, sequence (Q9NR96 26-1032): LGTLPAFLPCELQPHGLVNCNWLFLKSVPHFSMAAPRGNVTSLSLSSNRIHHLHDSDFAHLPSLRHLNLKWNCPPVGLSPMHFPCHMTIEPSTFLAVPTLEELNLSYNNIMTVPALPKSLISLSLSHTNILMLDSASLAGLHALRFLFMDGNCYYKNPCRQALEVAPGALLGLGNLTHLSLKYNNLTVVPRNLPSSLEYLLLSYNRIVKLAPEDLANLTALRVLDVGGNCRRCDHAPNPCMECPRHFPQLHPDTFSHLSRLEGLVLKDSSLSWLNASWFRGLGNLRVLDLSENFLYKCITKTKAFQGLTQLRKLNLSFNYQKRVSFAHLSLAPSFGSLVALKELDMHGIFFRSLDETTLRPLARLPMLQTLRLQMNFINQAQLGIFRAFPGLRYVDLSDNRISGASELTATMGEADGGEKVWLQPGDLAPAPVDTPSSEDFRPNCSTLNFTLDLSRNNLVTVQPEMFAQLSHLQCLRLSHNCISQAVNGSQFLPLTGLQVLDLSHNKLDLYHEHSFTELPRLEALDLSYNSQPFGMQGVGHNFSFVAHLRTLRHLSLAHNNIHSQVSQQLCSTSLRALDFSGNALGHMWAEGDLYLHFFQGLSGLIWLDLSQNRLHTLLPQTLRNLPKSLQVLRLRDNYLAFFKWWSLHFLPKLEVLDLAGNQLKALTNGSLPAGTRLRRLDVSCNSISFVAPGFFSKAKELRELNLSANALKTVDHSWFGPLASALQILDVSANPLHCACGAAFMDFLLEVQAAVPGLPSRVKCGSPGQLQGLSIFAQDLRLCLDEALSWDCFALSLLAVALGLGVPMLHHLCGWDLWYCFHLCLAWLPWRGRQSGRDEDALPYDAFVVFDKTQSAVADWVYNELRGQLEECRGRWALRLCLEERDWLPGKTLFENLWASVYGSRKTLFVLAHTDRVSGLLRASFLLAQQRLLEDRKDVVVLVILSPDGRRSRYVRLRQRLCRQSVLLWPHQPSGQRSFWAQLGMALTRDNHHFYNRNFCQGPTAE

Consider `Cc1cc(-c2[nH]c3ccc(C4CCN(C(=O)CNCCC(C)(C)C)CC4)cc3c2C(C)C)cc(C)n1` [Example 347, 2-((3,3-dimethylbutyl)amino)-1-(4-(2-(2,6-dimethylpyridin-4-yl)-3-isopropyl-1H-indol-5-yl)piperidin-1-yl)ethan-1-one], for which the pIC50 (commonly −log10 of the IC50, conventionally taken in molar units) at human TLR8 (setting [1]) was 7.32; against human TLR7 (setting [2]), 7.76; at human TLR9 (setting [3]), 6.12.
Turning to `CCOc1cc(-c2[nH]c3ccc(C4CCN(C5CCN(CC(C)C)CC5)CC4)cc3c2CC)ccn1` [Example 768, 2-(2-ethoxypyridin-4-yl)-3-ethyl-5-(1′-isobutyl-[1,4′-bipiperidin]-4-yl)-1H-indole], the results for the negative-log IC50 (pIC50) at human TLR8 (setting [1]), against human TLR7 (setting [2]) and at human TLR9 (setting [3]) were 5.93, 5.14 and 5.89, respectively.
On to `CCCNC(=O)CN1CCC(c2ccc3[nH]c(-c4cc(C)nc(C)c4)c(C(C)C)c3c2)CC1` [Example 238, 2-(4-(2-(2,6-dimethylpyridin-4-yl)-3-isopropyl-1H-indol-5-yl)piperidin-1-yl)-N-propylacetamide], for which the values for the negative logarithm of the IC50 (pIC50) at human TLR8 (setting [1]), at human TLR7 (setting [2]) and on human TLR9 (setting [3]) were 7.99, 8.28 and 6.03, respectively.
As for `CCc1c(-c2cc(C)nc(C)c2)[nH]c2ccc(C3CCN(C(=O)CNC)CC3)cc12` [Example 529, 1-(4-(2-(2,6-dimethylpyridin-4-yl)-3-ethyl-1H-indol-5-yl)piperidin-1-yl)-2-(methylamino)ethan-1-one], the pIC50 was 7.55 at human TLR8 (setting [1]), 8.18 at human TLR7 (setting [2]) and 6.92 on human TLR9 (setting [3]).
Regarding `Cc1cc(-c2[nH]c3ccc(C4CCN(CC5(C)COC5)CC4)cc3c2C(C)C)ccn1` [Example 867, 3-isopropyl-5-(1-((3-methyloxetan-3-yl)methyl)piperidin-4-yl)-2-(2-methylpyridin-4-yl)-1H-indole], the pIC50 on human TLR8 (setting [4]) is 8.43; at human TLR7 (setting [5]) it was 7.79; at human TLR9 (setting [6]), 6.10.
In the case of `Cc1cc(-c2[nH]c3ccc(C4CCN(CC(O)C(C)C)CC4)cc3c2C(C)C)cc(C)n1` (stereo not drawn) [Example 849, 1-(4-(2-(2,6-dimethylpyridin-4-yl)-3-isopropyl-1H-indol-5-yl)piperidin-1-yl)-3-methylbutan-2-ol], the results for the negative logarithm of the IC50 (pIC50) at human TLR8 (setting [4]), against human TLR7 (setting [5]) and at human TLR9 (setting [6]) were 8.64, 8.85 and 6.54, respectively.
As for `Cc1cc(-c2[nH]c3ccc(C4CCN(C(=O)CN5CC[C@@H](O)C5)CC4)cc3c2C(C)C)cc(C)n1` [Example 391, (R)-1-(4-(2-(2,6-dimethylpyridin-4-yl)-3-isopropyl-1H-indol-5-yl)piperidin-1-yl)-2-(3-hydroxypyrrolidin-1-yl)ethan-1-one], the figures for the negative-log IC50 (pIC50) on human TLR8 (setting [1]), on human TLR7 (setting [2]) and at human TLR9 (setting [3]) were 8.19, 8.89 and 6.16, respectively.
In the case of `Cc1cc(-c2[nH]c3ccc(C4CCN(C(=O)CN5CC[C@H](N)C5=O)CC4)cc3c2C(C)C)cc(C)n1` [Example 188, (S)-3-amino-1-(2-(4-(2-(2,6-dimethylpyridin-4-yl)-3-isopropyl-1H-indol-5-yl)piperidin-1-yl)-2-oxoethyl)pyrrolidin-2-one], the results for the pIC50 at human TLR8 (setting [1]), at human TLR7 (setting [2]) and at human TLR9 (setting [3]) were 7.89, 8.68 and 6.01, respectively.
For the compound `Cc1cc(-c2[nH]c3ccc(C4CCN(CC(=O)O)CC4)cc3c2C(C)C)cc(C)n1` [Example 875, 2-(4-(2-(2,6-dimethylpyridin-4-yl)-3-isopropyl-1H-indol-5-yl)piperidin-1-yl)acetic acid], the pIC50 at human TLR8 (setting [4]) was 6.60; against human TLR7 (setting [5]), 7.51; at human TLR9 (setting [6]) it was 5.00.
For `Cc1cc(-c2[nH]c3ccc(C4CCNCC4)cc3c2C(C)C)c([N+](=O)[O-])c(C)n1` [Example 27, 2-(2,6-dimethyl-3-nitropyridin-4-yl)-3-isopropyl-5-(piperidin-4-yl)-1H-indole], the negative-log IC50 (pIC50) is 8.05 on human TLR8 (setting [1]), 7.82 against human TLR7 (setting [2]) and 5.53 on human TLR9 (setting [3]).
Turning to `Cc1nc[nH]c1CN1CCC(c2ccc3[nH]c(-c4ccnc(N)c4)c(C(C)C)c3c2)CC1` [Example 816, 4-(3-isopropyl-5-(1-((4-methyl-1H-imidazol-5-yl)methyl)piperidin-4-yl)-1H-indol-2-yl)pyridin-2-amine], the results for the pIC50 on human TLR8 (setting [4]), against human TLR7 (setting [5]) and at human TLR9 (setting [6]) were 7.33, 6.67 and 7.07, respectively.
`CNCCN1CCC(c2ccc3[nH]c(-c4ccncc4OC)c(C)c3c2)CC1` [Example 754, 2-(4-(2-(3-methoxypyridin-4-yl)-3-methyl-1H-indol-5-yl)piperidin-1-yl)-N-methylethan-1-amine]: the figures for the pIC50 at human TLR8 (setting [1]), at human TLR7 (setting [2]) and at human TLR9 (setting [3]) were 7.56, 5.23 and 6.49, respectively.
Regarding `Cc1cc(-c2[nH]c3ccc(C4CCN(C(=O)CN5CC(F)(F)C5)CC4)cc3c2C(C)C)cc(C)n1` [Example 340, 2-(3,3-difluoroazetidin-1-yl)-1-(4-(2-(2,6-dimethylpyridin-4-yl)-3-isopropyl-1H-indol-5-yl)piperidin-1-yl)ethan-1-one], the pIC50 at human TLR8 (setting [1]) was 6.98; at human TLR7 (setting [2]), 7.83; on human TLR9 (setting [3]), 4.44.
For `Cc1cc(-c2[nH]c3ccc(C4CCN(Cc5ncco5)CC4)cc3c2C(C)C)c(C)cn1` [Example 699, 2-((4-(2-(2,5-dimethylpyridin-4-yl)-3-isopropyl-1H-indol-5-yl)piperidin-1-yl)methyl)oxazole], the negative logarithm of the IC50 (pIC50) at human TLR8 (setting [1]) is 8.38; against human TLR7 (setting [2]), 7.41; at human TLR9 (setting [3]), 4.39.
For `Cc1cc(-c2[nH]c3cc(F)c(C4CCNCC4)cc3c2C(C)C)c(C)cn1` [Example 80, 2-(2,5-dimethylpyridin-4-yl)-6-fluoro-3-isopropyl-5-(piperidin-4-yl)-1H-indole], the negative logarithm of the IC50 (pIC50) was 8.89 on human TLR8 (setting [1]), 8.57 against human TLR7 (setting [2]) and 6.23 on human TLR9 (setting [3]).
On the same counts, the results for `CCCN(CCO)CC(=O)N1CCC(c2ccc3[nH]c(-c4cc(C)nc(C)c4)c(C(C)C)c3c2)CC1` [Example 398, 1-(4-(2-(2,6-dimethylpyridin-4-yl)-3-isopropyl-1H-indol-5-yl)piperidin-1-yl)-2-((2-hydroxyethyl)(propyl)amino)ethan-1-one] are 7.59, 8.46 and 6.11.
On the same counts, the results for `Cc1cc(-c2[nH]c3ccc(C4CCN(C(=O)CN5CCC[C@@H]5CO)CC4)cc3c2C(C)C)cc(C)n1` [Example 412, (R)-1-(4-(2-(2,6-dimethylpyridin-4-yl)-3-isopropyl-1H-indol-5-yl)piperidin-1-yl)-2-(2-(hydroxymethyl)pyrrolidin-1-yl)ethan-1-one] are 7.47, 8.33 and 6.25.
Take `CCc1c(-c2ccnc(OC)c2)[nH]c2ccc(C3CCNCC3)cc12` [Example 61, 3-ethyl-2-(2-methoxypyridin-4-yl)-5-(piperidin-4-yl)-1H-indole]: the negative logarithm of the IC50 (pIC50) is 7.23 on human TLR8 (setting [1]), 6.68 against human TLR7 (setting [2]) and 5.63 at human TLR9 (setting [3]).
With `COc1ncc(CN2CCC(c3ccc4[nH]c(-c5cc(C)nc(C)c5)c(C(C)C)c4c3)CC2)cn1` [Example 430, 2-(2,6-dimethylpyridin-4-yl)-3-isopropyl-5-(1-((2-methoxypyrimidin-5-yl)methyl)piperidin-4-yl)-1H-indole], the results for the pIC50 at human TLR8 (setting [1]), on human TLR7 (setting [2]) and at human TLR9 (setting [3]) were 8.23, 8.00 and 6.43, respectively.
For `Cc1cc(-c2[nH]c3ccc(C4CCN(C(=O)CN5CCN(C)CC5)CC4)cc3c2C(C)C)cc(C)n1` [Example 163, 1-(4-(2-(2,6-dimethylpyridin-4-yl)-3-isopropyl-1H-indol-5-yl)piperidin-1-yl)-2-(4-methylpiperazin-1-yl)ethan-1-one], the pIC50 is 8.08 on human TLR8 (setting [1]), 9.05 against human TLR7 (setting [2]) and 6.11 at human TLR9 (setting [3]).
`CCN1CCC(c2ccc3[nH]c(-c4cc(C)nc(C)c4)c(C(C)C)c3c2)CC1` [Example 322, 2-(2,6-dimethylpyridin-4-yl)-5-(1-ethylpiperidin-4-yl)-3-isopropyl-1H-indole]: the values for the pIC50 on human TLR8 (setting [1]), against human TLR7 (setting [2]) and at human TLR9 (setting [3]) were 8.43, 8.68 and 6.40, respectively.
On the same counts, the results for `CNCCN1CCC(c2ccc3[nH]c(-c4ccnc(C(=O)OC)c4)c(C)c3c2)CC1` [Example 752, methyl 4-(3-methyl-5-(1-(2-(methylamino)ethyl)piperidin-4-yl)-1H-indol-2-yl) picolinate] are 6.94, 6.64 and 6.70.
The matching figures for `Cc1cc(-c2[nH]c3ccc(C4CCN(C(C)C)CC4)cc3c2CC(F)F)cc(C)n1` [Example 536, 3-(2,2-difluoroethyl)-2-(2,6-dimethylpyridin-4-yl)-5-(1-isopropylpiperidin-4-yl)-1H-indole]: 7.69, 7.92 and 6.91.
For `CCc1c(-c2ccnc(C)c2)[nH]c2ccc(C3CCN(C[C@@H]4CCCN4)CC3)cc12` [Example 740, (S)-3-ethyl-2-(2-methylpyridin-4-yl)-5-(1-(pyrrolidin-2-ylmethyl)piperidin-4-yl)-1H-indole], the negative-log IC50 (pIC50) on human TLR8 (TLR8 IC50, HEK-Blue cells overexpressing human TLR8, R848 15.9 μM) was 8.22; at human TLR7 (setting [2]), 7.17; against human TLR9 (TLR9 IC50, HEK-Blue cells overexpressing human TLR9, ODN2006 5 nM) it was 6.95.
For the compound `Cc1cc(-c2[nH]c3ccc(C4CCNCC4)cc3c2C(C)C)cc(N)n1` [Example 12, 4-(3-isopropyl-5-(piperidin-4-yl)-1H-indol-2-yl)-6-methylpyridin-2-amine], the negative-log IC50 (pIC50) is 7.40 on human TLR8 (setting [1]), 7.70 against human TLR7 (setting [2]) and 6.44 on human TLR9 (setting [3]).
